Measurements published in US20260226071A1, “2, 4-DIANILINOPYRIMIDINE-BASED AURORA-A KINASE SELECTIVE DEGRADATION INDUCING COMPOUNDS” (UPPTHERA, INC., priority 2023, published 2026).

Columns and labels:
Aurora kinase A (AURKA) = target: T1, Aurora kinase A (AURKA) (Homo sapiens, UniProt O14965); test: Luciferase assay for AURKA in HeLa LgBit (AURKA-HiBit KI) cell line; type: cell-based; conditions: HeLa LgBit (AURKA-HiBit KI) cells, measured after 12 hours
T1 construct: endogenous in cells; host or cells: HeLa LgBit (AURKA-HiBit KI), CRISPR/Cas9 knock-in at the endogenous AURKA locus
T1 sequence (O14965 1-403): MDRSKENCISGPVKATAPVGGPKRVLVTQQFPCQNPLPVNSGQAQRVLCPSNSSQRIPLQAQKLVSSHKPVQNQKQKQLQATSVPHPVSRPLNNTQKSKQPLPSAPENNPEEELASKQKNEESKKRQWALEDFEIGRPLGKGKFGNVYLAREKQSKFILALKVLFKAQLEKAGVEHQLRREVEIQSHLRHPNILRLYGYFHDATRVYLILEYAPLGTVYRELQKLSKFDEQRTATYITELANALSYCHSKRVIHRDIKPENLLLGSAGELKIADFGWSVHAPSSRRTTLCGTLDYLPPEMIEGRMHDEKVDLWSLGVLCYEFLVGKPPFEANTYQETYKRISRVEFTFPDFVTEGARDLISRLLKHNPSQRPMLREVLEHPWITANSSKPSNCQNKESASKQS
Method in brief: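 HeLa cells stably expressing LgBit, with HiBit knocked in at the C-terminus of endogenous AURKA; 3×10^4 cells seeded, 18 h, then Endurazine substrate 2 h. Compounds tested at 10 nM or 100 nM; luminescence read at 470-480 nm after 12 h as real-time read-out.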

NCI-H446 cell line = test: Cell viability assay for NCI-H446 cell line; type: cell-based; conditions: Homo sapiens, NCI-H446, 120 h; H446 cells, 5 days culture, EZ-Cytox; read-out: IC50 value (Level)
Source text: The NCI-H446 (hereafter H446) cell lines were provided from American Type Culture Collection (ATCC). For cell culture, RPMI medium 1640 (Gibco, Cat. No. 22400-089; Lot. No. 2522717), FBS (Gibco, Cat. No. 16000-044; Lot. No. 2716756P), Penicillin/Streptomycin (PS) (Gibco, Cat. No. 15140-122; Lot. No. 2585636), 75T cell culture flask (SPL, Cat. No. 70075), 96 well cell culture plate (SPL, Cat. No. 30096), PBS pH 7.4 (Gibco, Cat. No. 10010-023; Lot. No. 2561466), TrypLE™ Express (Gibco, Cat. No. 12605-010; Lot. No. 2492811), counting chamber (hematocytometer) (Hirschmann, Cat. No. 8100204) and 0.4% Trypan Blue solution (DYNEBIO, Cat. No. CBT3710; Lot. No. 20231017) were used. Cells were cultured in RPMI 1640 medium supplemented with 10% FBS and 1% PS and incubated at 37° C., 5% CO2 condition in CO2 incubator (ThermoScientific, Cat. No. 4111).
For experiment, the present compounds were fully dissolved in DMSO (Sigma-Aldrich Cat. No. D2438, Lot. No. RNBL7287.
In each well of 96-well cell culture plate, […] cells of H446 cell lines were seeded in 150 μl of total medium volume. After 24 hours of cell seeding, the present compounds were treated.
The present compounds were each diluted 3-folds from the highest concentration of 1000 nM to the lowest concentration of 0.15 nM. The compound was added to each well to make the total volume of […] and the cells were cultured for 5 days in CO2 incubator (Thermo Fisher Science, Cat. No. 4111).
Thereafter, 20 μl of EZ-Cytox (DOGEN, Cat. NO. EZ-3000, Lot. No. DLS2308) was added to each well and the cells were cultured for 4 hours at the same condition in CO2 incubator. After culture, the absorbance of the sample was measured by setting the wavelength of a plate reader (BMG Labtech, CLARIOstar Plus) to […]. The samples were shaked for 2 minutes in the plate reader before measurement.

luminescence value (Level) (Aurora kinase A (AURKA); 10 nM compound) | luminescence value (Level) (Aurora kinase A (AURKA); 100 nM compound) | SMILES | IC50 (NCI-H446 cell line)
B (B is 0.3 to 0.5) | A (A is <0.2) | O=C1CC[C@H](Nc2ccc(N3CCN(CCC4CCN(NC(=O)c5ccc(Nc6ncc(F)c(Nc7ccc(C(=O)Nc8ccccc8Cl)cc7)n6)cc5)CC4)CC3)cc2F)C(=O)N1 [Compound 95, (S)—N-(2-chlorophenyl)-4-((2-((4-((4-(2-(4-(4-((2,6-dioxopiperidin-3-yl)amino)-3-fluorophenyl)piperazin-1-yl)ethyl)piperidin-1-yl)carbamoyl)phenyl)amino)-5-fluoropyrimidin-4-yl)amino)benzamide] | 0.05 to 0.1 µM
B (B is 0.3 to 0.5) | A (A is <0.2) | O=C1CCC(c2ccc(N3CCN(CCC4CCN(NC(=O)c5ccc(Nc6ncc(F)c(Oc7ccc(C(=O)Nc8ccccc8Cl)cc7)n6)cc5)CC4)CC3)cc2)C(=O)N1 (stereo not drawn) [Compound 101, N-(2-chlorophenyl)-4-((2-((4-((4-(2-(4-(4-(2,6-dioxopiperidin-3-yl)phenyl)piperazin-1-yl)ethyl)piperidin-1-yl)carbamoyl)phenyl)amino)-5-fluoropyrimidin-4-yl)oxy) benzamide] | > 0.2 µM
A (A is <0.3) | A (A is <0.2) | O=C1CCC(c2ccc(N3CCN(CCC4CCN(NC(=O)c5ccc(Nc6ncc(F)c(Nc7ccc(C(=O)Nc8ccccc8Cl)cc7)n6)cc5)CC4)CC3)nc2)C(=O)N1 (stereo not drawn) [Compound 56, N-(2-chlorophenyl)-4-[[2-[4-[[4-[2-[4-[5-(2,6-dioxo-3-piperidyl)-2-pyridyl]piperazin-1-yl]ethyl]-1-piperidyl]carbamoyl]anilino]-5-fluoro-pyrimidin-4-yl]amino]benzamide] | < 0.05 µM
B (B is 0.3 to 0.5) | A (A is <0.2) | O=C1CCC(c2ccc(N3CCN(CCC4CCN(C(=O)Nc5ccc(Nc6ncc(F)c(Nc7ccc(C(=O)Nc8ccccc8Cl)cc7)n6)cc5)CC4)CC3)cc2)C(=O)N1 (stereo not drawn) [Compound 53, N-(4-((4-((4-((2-chlorophenyl)carbamoyl)phenyl)amino)-5-fluoropyrimidin-2-yl)amino)phenyl)-4-(2-(4-(4-(2,6-dioxopiperidin-3-yl)phenyl)piperazin-1-yl)ethyl)piperidine-1-carboxamide] | < 0.05 µM
A (A is <0.3) | A (A is <0.2) | O=C1CCC(c2ccc(N3CCC(N4CCC5(CC4)CC(NC(=O)Cc4ccc(Nc6ncc(F)c(Nc7ccc(C(=O)Nc8ccccc8Cl)cc7)n6)cc4)C5)CC3)c(F)c2)C(=O)N1 (stereo not drawn) [Compound 22, N-(2-chlorophenyl)-4-((2-((4-(2-((7-(1-(4-(2,6-dioxopiperidin-3-yl)-2-fluorophenyl)piperidin-4-yl)-7-azaspiro[3.5]nonan-2-yl)amino)-2-oxoethyl)phenyl)amino)-5-fluoropyrimidin-4-yl)amino)benzamide] | 0.1 to 0.15 µM
A (A is <0.3) | A (A is <0.2) | O=C1CCC(Nc2ccc(N3CCN(CCN4CCC(NC(=O)c5ccc(Nc6ncc(F)c(Nc7ccc(C(=O)Nc8ccccc8Cl)cc7)n6)cc5)CC4)CC3)cc2)C(=O)N1 (stereo not drawn) [Compound 73, N-(2-chlorophenyl)-4-((2-((4-((1-(2-(4-(4-((2,6-dioxopiperidin-3-yl)amino)phenyl)piperazin-1-yl)ethyl)piperidin-4-yl)carbamoyl)phenyl)amino)-5-fluoropyrimidin-4-yl)amino)benzamide] | 0.1 to 0.15 µM
A (A is <0.3) | A (A is <0.2) | CN(CC1CCN(c2ccc(C3CCC(=O)NC3=O)cc2)CC1)[C@H]1CC[C@H](NC(=O)c2ccc(Nc3ncc(F)c(Nc4ccc(C(=O)Nc5ccccc5Cl)cc4)n3)cc2)CC1 (stereo partly drawn) [Compound 49, N-(2-chlorophenyl)-4-((2-((4-(((1r,4r)-4-(((1-(4-(2,6-dioxopiperidin-3-yl)phenyl)piperidin-4-yl)methyl)(methyl)amino)cyclohexyl)carbamoyl)phenyl)amino)-5-fluoropyrimidin-4-yl)amino)benzamide] | < 0.05 µM
